In patent US12447167B2, “GM-CSF-producing t-cell control agent and Th1/Th2 immune balance regulator” (National Center of Neurology and Psychiatry, priority 2014, dated 2025):

Columns and labels:
[1] = system: IFN-γ; assay: IFN-γ expression level of sorted CD4-positive memory T-cells of MS patients (ELISA of culture supernatant); assay type: in vivo, human; details: 0.3 mg single oral
Method: (§1) A single dose of compound 31, which is a synthetic glycolipid of the present invention, described in the first aspect was orally administered to each of 2 MS patients (subjects) shown in Table 2 above after obtainment of informed consent. The dose was set to 0.3 mg per person.
(§2) Subsequently, T-cell subfractions were prepared from the peripheral blood of each subject by using the density gradient centrifugation method. First, a total of 20 mL of blood was collected from the vein of each subject 24 hours (1st day), 48 hours (2nd day), 72 hours (3rd day), 168 hours (7th day), and 192 hours (8th day) after the administration of compound 31 by using two 10-mL heparin sodium-containing vacuum blood collection tubes. For a control, 20 mL of blood was similarly collected from the vein of each subject one day before the administration of compound 31.
(§3) The collected PBMCs were stained with antibodies by the following method. First, 10 μL of a solution consisting of 20 μL of MACS buffer, 0.25 μL of APC-Cy7-anti-CD3 antibody (BioLegend, Inc.), 1 μL of PB-anti-CD4 antibody (BioLegend, Inc.), 1 μL of PerCP-Cy5.5-anti-CD45RA antibody (BioLegend, Inc.), and 1 μL of PC7-anti-CD56 antibody (Beckman Coulter, Inc.) was added to 6×10^6 cells of PBMCs, thoroughly mixed by vortexing, and then left on ice for 20 minutes. CD56 is a detection marker of cells having NK activity, and CD3^−CD56^− cells indicate being antigen-presenting cells (APCs). […]
(§4) mCD4T and APC obtained by the sorting were each suspended in a medium consisting of 500 mL of RPMI1640 (GIBCO/Thermo Fisher Scientific Inc.), 5 mL of glutamine (200 mM, Wako Pure Chemical Industries, Ltd.), 5 mL of Pen/strep (10,000 U/mL, GIBCO/Thermo Fisher Scientific Inc.), 0.5 mL of 2-mercaptoethanol (GIBCO/Thermo Fisher Scientific Inc.), and 50 mL of 10% (v/v) Cellect FETAL BOVINE SERUM (MP Biomedicals, LLC), and the number of cells was measured. […]
(§5) After the culture, a culture supernatant was collected, and IFN-γ, IL-4, IL-17, and GM-CSF were measured by the ELISA method. […]

[2] = system: IL-17; assay: IL-17 expression level of sorted CD4-positive memory T-cells of MS patients (ELISA of culture supernatant); assay type: in vivo, human; details: 0.3 mg single oral
Method: as §1, §2, §3, §4, §5

[3] = system: GM-CSF; assay: GM-CSF expression level of sorted CD4-positive memory T-cells of MS patients (ELISA of culture supernatant); assay type: in vivo, human; details: 0.3 mg single oral
Method: as §1, §2, §3, §4, §5

[4] = Disposition after single oral dose, mouse; assay type: in vivo; parameters: concentration in blood: unit not given here; details: male mouse, 5 mg/kg single oral, 14C-labeled, fasting
Method: After a single dose of compound 31 labeled with ^14C was orally administered at a predetermined dose to each of a male mouse, a male rat, and a male cynomolgus monkey under fasting conditions, the concentration in blood was measured after a lapse of a given time, and parameters such as maximum plasma concentration Cmax, time Tmax to reach the maximum plasma concentration, half-life t1/2, area under curve AUC0-∞, mean retention time MRT0-∞, and bioavailability BA were calculated. The concentration in blood in humans (normal subjects) was measured and each of the parameters was calculated, in the similar manner as above except that ^14C-unlabeled compound 31 was used.
In the tables, “N.D.” means not detected.

[5] = Disposition after single oral dose, MS patients; assay type: in vivo, human; details: 0.3 mg/body single oral
Method: In the similar manner as in Example 5, a single dose of compound 31 labeled with ^14C was orally administered to each of 2 MS patients (subjects) after obtainment of informed consent, and the concentration of the compound in blood was measured and each parameter was calculated by collecting blood after a lapse of a given time.

Question: With `CCCCCCCCCCCCCCCCCCCCCCCC(=O)NC(COC1OC(CO)C(O)C(O)C1O)[C@H](O)C(O)CCCCC` (stereo in doubt) [compound 31, (2S,3S,4R)-1-O-(α-D-galactosyl)-2-(N-tetracosanoylamino)-1,3,4-nonanetriol] as the molecule, how does the IFNγ expression level ([1]; day 8, MBP stimulation (culture condition B), day −1 value 28528.18) read?
Answer: 7006.30

Question: What about the IFNγ expression level ([1]; day 8, OVA stimulation (culture condition A), day −1 value 23489.34) of the same molecule?
Answer: 5032.43

Question: What about the “change of expression level of IFN-γ” value ([1]; day8 vs day-1) of the same molecule?
Answer: decreased

Question: And the IL-17 expression level ([2]; day 8, MBP stimulation, day −1 value 916.90)?
Answer: 491.24

Question: And the IL-17 expression level ([2]; day 8, OVA stimulation, day −1 value 666.56)?
Answer: 158.50

Question: What about the “change of expression level of IL-17” value ([2]; day8 vs day-1) of the same molecule?
Answer: decreased

Question: What about the GM-CSF expression level ([3]; day 8, MBP stimulation, day −1 value 153.15) of the same molecule?
Answer: 50.81

Question: What about the GM-CSF expression level ([3]; day 8, OVA stimulation, day −1 value 224.87) of the same molecule?
Answer: 168.45

Question: What about the “change of expression level of GM-CSF” value ([3]; day8 vs day-1) of the same molecule?
Answer: decreased

Question: And the AUC(0-inf) ([4]; blood)?
Answer: 2920 ng·h/mL

Question: What about the AUC(0-t) ([4]; blood) of the same molecule?
Answer: 2900 ng·h/mL

Question: And the half-life ([4]; blood)?
Answer: 11 h

Question: And the MRT inf ([4]; blood, read-out: MRT0-∞)?
Answer: 15.4 h

Question: What about the BA [4] of the same molecule?
Answer: 1.01%

Question: What about the Rate of absorption [4] of the same molecule?
Answer: 1.36%

Question: What about the concentration in blood ([4]; 4 h) of the same molecule?
Answer: 46.5

Question: And the concentration in blood ([4]; 8 h)?
Answer: 209

Question: And the concentration in blood ([4]; 12 h)?
Answer: 142

Question: What about the concentration in blood ([4]; 24 h) of the same molecule?
Answer: 33

Question: What about the concentration in blood ([4]; 48 h) of the same molecule?
Answer: 5.21

Question: What about the concentration in blood ([4]; 72 h) of the same molecule?
Answer: 1.62

Question: What about the Cmax ([4]; plasma) of the same molecule?
Answer: 209 ng/mL

Question: And the Tmax ([4]; plasma)?
Answer: 8 h

Question: And the “concentration in blood in MS patients as compared with normal persons” value [5]?
Answer: low concentration in blood

Question: And the AUC(0-t) ([5]; human, blood)?
Answer: 1.41 ng·h/mL

Question: And the Cmax ([5]; human, blood)?
Answer: 0.122 ng/mL

Question: What about the Tmax ([5]; human, blood) of the same molecule?
Answer: 18 h
